Counter-ions that a name gives are not always drawn. Like-named read-outs stand apart in the source and are kept apart here.
Biological target: human complement factor B (CVF-Bb complex) (Homo sapiens (Human), UniProt P00751)
Test: Human Complement Factor B ELISA Assay
Type: biochemical
In short: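 Preformed CVF-Bb complex (3 nM; cobra venom factor with recombinant human factors B and D) preincubated with compound 1 h, RT, in PBS pH 7.4, 10 mM MgCl2, 0.05% CHAPS. Plasma C3 added at 1 μM final for 1 h, then stopped; C3a product measured by ELISA, IC50 from % inhibition.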

[1] = CVF-Bb complex 3 nM, 1 hour preincubation with compound at room temperature, human C3 substrate 1 μM, C3a quantified by ELISA, read-out: Factor B IC50

| SMILES | IC50 [nM] | IC50 [1] [nM] |
| --- | --- | --- |
| COc1cc2c(N)nc(N3CCN(C(=O)C[C@@H](N)c4ccc(Br)cc4)CC3)nc2c(F)c1OC [Example 49, (R)-3-Amino-1-[4-(4-amino-8-fluoro-6,7-dimethoxy-quinazolin-2-yl)-piperazin-1-yl]-3-(4-bromo-phenyl)-propan-1-one hydrochloride] | 60 |  |
| COCCC1CN(C(=O)/C=C/C2CC2)CCN1c1nc(N)c2cc(OC)c(OC)c(F)c2n1 (stereo not drawn) [Example 4, (E)-1-[4-(4-Amino-8-fluoro-6,7-dimethoxy-quinazolin-2-yl)-3-(2-methoxy-ethyl)-piperazin-1-yl]-3-cyclopropyl-propenone] |  | 16500 |
| COc1cc2c(N)nc(N3CCN(C(=O)c4cc5cc(F)ccc5[nH]4)C[C@@H]3C)nc2c(F)c1OC [Example 24, [(S)-4-(4-Amino-8-fluoro-6,7-dimethoxy-quinazolin-2-yl)-3-methyl-piperazin-1-yl]-(5-fluoro-1H-indol-2-yl)-methanone] |  | 90 |
| COc1cc2c(N)nc(N3CCN(C(=O)C[C@@H](N)c4cccs4)CC3)nc2c(F)c1OC [Example 36, (R)-3-Amino-1-[4-(4-amino-8-fluoro-6,7-dimethoxy-quinazolin-2-yl)-piperazin-1-yl]-3-thiophen-2-yl-propan-1-one hydrochloride] | 190 |  |
| CCCN[C@H](CC(=O)N1CCN(c2nc(N)c3cc(OC)c(OC)c(F)c3n2)CC1)c1ccc(Cl)s1 [Example 92, (R)-1-(4-(4-amino-8-fluoro-6,7-dimethoxyquinazolin-2-yl)piperazin-1-yl)-3-(5-chlorothiophen-2-yl)-3-(propylamino)propan-1-one] |  | 8 |
| COc1cc2c(N)nc(N3CCN(C(=O)C[C@@H](N)Cc4ccncc4)C[C@@H]3C)nc2c(F)c1OC [Example 63, (S)-3-Amino-1-[(S)-4-(4-amino-8-fluoro-6,7-dimethoxy-quinazolin-2-yl)-3-methyl-piperazin-1-yl]-4-pyridin-4-yl-butan-1-one hydrochloride] | 7320 |  |
| COc1cc2c(N)nc(N3CCN(C(=O)/C=C/c4ccc(F)cc4)CC3)nc2c(Cl)c1OC [Example 16, (E)-1-(4-(4-Amino-8-chloro-6,7-dimethoxyquinazolin-2-yl)piperazin-1-yl)-3-(4-fluorophenyl)prop-2-en-1-one] |  | 1440 |
| COc1cc2c(N)nc(N3CCN(C(=O)c4cc5cc(F)cc(F)c5[nH]4)CC3)nc2c(F)c1OC [Example 22, [4-(4-Amino-8-fluoro-6,7-dimethoxy-quinazolin-2-yl)-piperazin-1-yl]-(5,7-difluoro-1H-indol-2-yl)-methanone] |  | 17 |
| COc1cc2c(N)nc(N3CCN(C(=O)C[C@@H](N)CC(C)C)CC3)nc2c(F)c1OC [Example 33, (S)-3-Amino-1-[4-(4-amino-8-fluoro-6,7-dimethoxy-quinazolin-2-yl)-piperazin-1-yl]-5-methyl-hexan-1-one] |  | 680 |
| COc1cc2c(N)nc(N3CCN(C(=O)C[C@@H](N)c4cccc(Cl)c4)CC3)nc2c(F)c1OC [Example 47, (R)-3-Amino-1-[4-(4-amino-8-fluoro-6,7-dimethoxy-quinazolin-2-yl)-piperazin-1-yl]-3-(3-chloro-phenyl)-propan-1-one] |  | 110 |
| COc1cc2c(N)nc(N3CCN(C(=O)C[C@@H](NCCF)c4ccc(F)cc4)CC3)nc2c(F)c1OC [Example 98] |  | 6 |
| COCCN[C@H](CC(=O)N1CCN(c2nc(N)c3cc(OC)c(OC)c(F)c3n2)CC1)c1ccc(F)cc1 [Example 100, (R)-1-[4-(4-Amino-8-fluoro-6,7-dimethoxy-quinazolin-2-yl)-piperazin-1-yl]-3-(4-fluoro-phenyl)-3-(2-methoxy-ethylamino)-propan-1-one] |  | 20 |
| COc1cc2c(N)nc(N3CCN(C(=O)C[C@@H](N)c4ccc(F)cc4)C[C@@H]3c3ccccc3)nc2c(F)c1OC [Example 69, (R)-3-Amino-1-[(S)-4-(4-amino-8-fluoro-6,7-dimethoxy-quinazolin-2-yl)-3-phenyl-piperazin-1-yl]-3-(4-fluoro-phenyl)-propan-1-one hydrochloride] | 7 |  |
| COc1cc2c(N)nc(N3CCN(C(=O)C[C@@H](N)c4ccc(F)cc4F)CC3)nc2c(F)c1OC [Example 50, (R)-3-Amino-1-[4-(4-amino-8-fluoro-6,7-dimethoxy-quinazolin-2-yl)-piperazin-1-yl]-3-(2,4-difluoro-phenyl)-propan-1-one hydrochloride] | 450 |  |
| COc1cc2c(N)nc(N3CCN(C(=O)C[C@@H](N)c4cccc(C(F)(F)F)c4)CC3)nc2c(F)c1OC [Example 54, (R)-3-Amino-1-[4-(4-amino-8-fluoro-6,7-dimethoxy-quinazolin-2-yl)-piperazin-1-yl]-3-(3-trifluoromethyl-phenyl)-propan-1-one] |  | 260 |
| COc1cc2c(N)nc(N3CCN(C(=O)C[C@@H](C(N)=O)c4ccc(F)cc4)CC3)nc2c(F)c1OC [Example 130, (R)-4-[4-(4-Amino-8-fluoro-6,7-dimethoxy-quinazolin-2-yl)-piperazin-1-yl]-2-(4-fluoro-phenyl)-4-oxo-butyramide] |  | 10 |
| COc1cc2c(N)nc(N3CCN(C(=O)c4cc5cc(F)ccc5[nH]4)C[C@@H]3c3ccccc3)nc2c(F)c1OC [Example 29, (S)-(4-(4-amino-8-fluoro-6,7-dimethoxyquinazolin-2-yl)-3-phenylpiperazin-1-yl)(5-fluoro-1H-indol-2-yl)methanone] |  | 14 |
| C#CC[C@H](N)CC(=O)N1CCN(c2nc(N)c3cc(OC)c(OC)c(F)c3n2)CC1 [Example 31, (S)-3-Amino-1-[4-(4-amino-8-fluoro-6,7-dimethoxy-quinazolin-2-yl)-piperazin-1-yl]-hex-5-yn-1-one] |  | 1040 |
| COc1cc2c(N)nc(N3CCN(C(=O)C[C@@H](N)c4ccc(F)c(F)c4)CC3)nc2c(F)c1OC [Example 51, (R)-3-Amino-1-[4-(4-amino-8-fluoro-6,7-dimethoxy-quinazolin-2-yl)piperazin-1-yl]-3-(3,4-difluoro-phenyl)-propan-1-one hydrochloride] | 180 |  |
| COc1cc2c(N)nc(N3CCN(C(=O)C[C@@H](NC(C)C)c4ccc(F)c(C#N)c4)CC3)nc2c(F)c1OC [Example 91, (R)-5-(3-(4-(4-amino-8-fluoro-6,7-dimethoxyquinazolin-2-yl)piperazin-1-yl)-1-(isopropylamino)-3-oxopropyl)-2-fluorobenzonitrile] |  | 12 |
| COCCOc1c(OC)cc2c(N)nc(N3CCN(C(=O)c4cc5cc(Cl)ccc5[nH]4)C[C@@H]3C)nc2c1F [Example 30, {(S)-4-[4-Amino-8-fluoro-6-methoxy-7-(2-methoxy-ethoxy)-quinazolin-2-yl]-3-methyl-piperazin-1-yl}-(5-chloro-1H-indol-2-yl)-methanone] |  | 70 |
| COc1cc2c(N)nc(N3CCN(C(=O)C[C@@H](NCC4(C)COC4)c4ccc(C#N)cc4)CC3)nc2c(F)c1OC [Example 102] |  | 1 |
| COc1cc2c(N)nc(N3CCN(C(=O)C[C@@H]4CCCCN4)CC3)nc2c(C#N)c1OC [Example 126, (S)-4-Amino-6,7-dimethoxy-2-(4-(2-(piperidin-2-yl)acetyl)piperazin-1-yl)quinazoline-8-carbonitrile] |  | 2900 |
| COc1cc2c(N)nc(N3CCN(C(=O)C[C@@H](N)c4ccccc4)CC3)nc2c(C#N)c1OC [Example 75, 4-Amino-2-[4-((R)-3-amino-3-phenyl-propionyl)-piperazin-1-yl]-6,7-dimethoxy-quinazoline-8-carbonitrile] |  | 760 |
